Values after ≈ are worked out from the molar mass of the structure shown. Structures can show the parent of a compound that is named as a salt. Where two headings read alike, the source gives them in different places.
Assays:
[1] = system: P388 lymphocytic leukemia cell line; type: cell-based; settings: murine P388 lymphocytic leukemia cell line
Procedure: (§1) Cytotoxicity assays were performed by the sulforhodamine B method, in which inhibition of formation of cellular protein is measured (Ref. 42). The mitotic index of MCF-7 breast cancer cells was determined as described previously (Ref. 27), except that cells were incubated in the presence of drug for 16 h prior to addition of the DNA stain.

SF-295 = experiment: cells; type: cell-based, human; settings: for GI50: Homo sapiens, read-out: CNS SF-295 GI50
Procedure: as §1

BXPC-3 = experiment: cells; type: cell-based, human; settings: for GI50: Homo sapiens, read-out: Pancreas BXPC-3 GI50
Procedure: as §1

DU145 = experiment: cells; type: cell-based, human; settings: for GI50: Homo sapiens, DU-145, read-out: Prostate DU145 GI50
Procedure: as §1

NCI-H460 = experiment: cells; type: cell-based, human; settings: for GI50: Homo sapiens, read-out: Lung-NSC NCI-H460 GI50
Procedure: as §1

KM20L2 = experiment: cells; type: cell-based, human; settings: for GI50: Homo sapiens, KM-20L2, read-out: Colon KM20L2 GI50
Procedure: as §1

MCF-7 = experiment: cells; type: cell-based, human; settings: for GI50: Homo sapiens, MCF7, read-out: Breast MCF-7 GI50
Procedure: as §1

[2] = system: human cancer cell lines and murine P388; experiment: cells; type: cell-based; settings: for IC50: Mus musculus, P388, read-out: Mean
Procedure: as §1

[3] = system: Enterococcus faecalis ATCC 29212; experiment: Broth microdilution assay, Enterococcus faecalis; type: cell-based
Source text: (§2) Compounds were screened in broth microdilution assays according to National Committee for Clinical Laboratory Standards (Ref. 43-44). Assays were repeated at least twice on separate days.

[4] = Solubility in distilled water; type: physicochemical; settings: for solubility / Solubility: 1 mL distilled water at 25° C.
[5] = system: Cryptococcus neoformans ATCC 90112; experiment: Broth microdilution assay, Cryptococcus neoformans; type: cell-based; settings: ATCC90112
Source text: as §2

[6] = system: Neisseria gonorrhoeae ATCC 49226; experiment: Broth microdilution assay, Neisseria gonorrhoeae; type: cell-based
Source text: as §2

[7] = system: Streptococcus pneumoniae ATCC 6303; experiment: Broth microdilution assay, Streptococcus pneumoniae; type: cell-based; settings: ATCC6303
Source text: as §2

[8] = mean over the cell lines of Table 2

Compound | Leukemia P388 ED50 [1] [µg/mL] | CNS SF-295 GI50 (SF-295) [µg/mL] | Prostate DU145 GI50 (DU145) [µg/mL] | Lung-NSC NCI-H460 GI50 (NCI-H460) [µg/mL] | Colon KM20L2 GI50 (KM20L2) [µg/mL] | Breast MCF-7 GI50 (MCF-7) [µg/mL] | water solubility (in words) [4] | GI50 (SF-295) [µg/mL] | GI50 (BXPC-3) [µg/mL] | GI50 (DU145) [µg/mL] | GI50 (NCI-H460) [µg/mL] | GI50 (KM20L2) [µg/mL] | GI50 (MCF-7) [µg/mL] | IC50 [2, 8] [µg/mL] | further results
COc1ccc(/C=C\c2cc(OC)c3c(c2)OCO3)cc1NC(=O)[C@H](Cc1ccc(OC(C)(C)C)cc1)NC(=O)OCc1ccccc1 [Compound 7, 3,4-Methylenedioxy-5,4′-dimethoxy-3′-(O-tert-butyl-N^α-Z-L-Tyr)-amido-Z-stilbene] | 0.380 | 0.44 | 0.39 | 0.41 | 1.8 | 0.36 | – | – | – | – | – | – | – | – | Pancreas BXPC-3 GI50 (BXPC-3): 0.049 µg/mL; Mean [2, 8]: 0.61 µg/mL
COc1ccc(/C=C\c2cc(OC)c3c(c2)OCO3)cc1NC(=O)[C@H](Cc1ccc(OP(=O)(OCc2ccccc2)OCc2ccccc2)cc1)NC(=O)OCc1ccccc1 [Compound 8, 3,4-Methylenedioxy-5,4′-dimethoxy-3′-(O-bis-benzylphosphoryl-N^α-Z-L-Tyr)-amido-Z-stilbene] | 0.133 | >10 | >10 | >10 | >10 | >10 | – | – | – | – | – | – | – | – | MIC [3]: 64 µg/mL (≈ 74.7 µM); Pancreas BXPC-3 GI50 (BXPC-3): >10 µg/mL
COc1ccc(/C=C\c2cc(OC)c3c(c2)OCO3)cc1NC(=O)[C@@H](N)Cc1ccc(O)cc1.Cl [Compound 9, 3,4-Methylenedioxy-5,4′-dimethoxy-3′-(N^α-L-Tyr)-amido-Z-stilbene hydrochloride] | 0.0329 | – | – | – | – | – | only sparing water solubility | 0.064 | 0.064 | 0.08 | 0.096 | 0.034 | 0.041 | 0.059 | melting point: 169 to 170.5 °C; solubility [4]: < 100 µg/mL; Solubility ([4]; hydrochloride): <100 µg/mL; inhibition of mini-panel of human cancer cell lines (in words) [2]: strongly inhibiting
COc1ccc(/C=C\c2cc(OC)c3c(c2)OCO3)cc1NC(=O)[C@H](CC(=O)OC(C)(C)C)NC(=O)OC(C)(C)C [Compound 10, 3,4-Methylenedioxy-5,4′-dimethoxy-3′-(O^β-tert-butyl-N^α-Boc-L-Asp)-amido-Z-stilbene] | 0.385 | – | – | – | – | – | – | 1.7 (≈ 2.98 µM) | 3.4 (≈ 5.96 µM) | 3 (≈ 5.26 µM) | 3.8 (≈ 6.66 µM) | 2.3 (≈ 4.03 µM) | 2.4 (≈ 4.21 µM) | 2.4 (≈ 4.21 µM) | –
COc1ccc(/C=C\c2cc(OC)c3c(c2)OCO3)cc1NC(=O)[C@@H](N)CC(=O)[O-].[Na+] [Compound 11, Sodium 3,4-methylenedioxy-5,4′-dimethoxy-3′-(N^α-L-Asp)-amido-Z-stilbene] | 0.361 | – | – | – | – | – | only sparing water solubility | 0.25 | 0.38 | 0.33 | 0.3 | 0.19 | 0.51 | 0.33 | melting point: 168 to 170 °C; Solubility [4]: <100 µg/mL; solubility [4]: < 100 µg/mL
COc1ccc(/C=C\c2cc(OC)c3c(c2)OCO3)cc1NC(=O)[C@H](C)[C@@H](OC)[C@@H]1CCCN1C(=O)OC(C)(C)C [Compound 13, 3,4-Methylenedioxy-5,4′-dimethoxy-3′-(N^α-Boc-L-Dap)-amido-Z-stilbene] | 0.225 | – | – | – | – | – | – | 0.75 (≈ 1.32 µM) | 0.58 (≈ 1.02 µM) | 0.38 (≈ 0.668 µM) | 0.52 (≈ 0.914 µM) | 1.9 (≈ 3.34 µM) | 0.53 (≈ 0.932 µM) | 0.7 (≈ 1.23 µM) | MIC [5]: 64 µg/mL (≈ 113 µM)
COc1ccc(/C=C\c2cc(OC)c3c(c2)OCO3)cc1NC(=O)[C@H](C)[C@@H](OC)[C@@H]1CCCN1 [Compound 14, 3,4-Methylenedioxy-5,4′-dimethoxy-3′-(N^α-L-Dap)-amido-Z-stilbene TFA salt] | 0.0263 | – | – | – | – | – | – | 0.062 | 0.23 | 0.07 | 0.083 | 0.26 | 0.054 | 0.11 | MIC ([3]; ATCC29212, read-out: MIC): 32 to 64 µg/mL; MIC [5]: 64 µg/mL; inhibition of mini-panel of human cancer cell lines (in words) [2]: strongly inhibiting; MIC ([6]; ATCC49226, read-out: MIC): 16 µg/mL; MIC [7]: 8 to 16 µg/mL
Sodium 3,4-methylenedioxy-5,4′-dimethoxy-3′-(L-Tyr)-amido-Z-stilbene 3′-O,N^α-diphosphate [Compound 6] | 0.270 | >1 | >1 | >1 | >1 | 1.3 | only sparing water solubility | – | – | – | – | – | – | – | Solubility [4]: <100 µg/mL; MIC [6]: 4 µg/mL
